US9017962B2, “Intracellular reporters” (The Johns Hopkins University, priority 2007, dated 2015)
“Also recorded” adds a separate entry of the source.

Assays:
Format in all cases: cell-based
[1] = tested on: Akt; assay: Mito-AktAR imaging, Akt activity at the mitochondrial outer membrane, NIH3T3 cells
Excerpt: (§1) All of the targeting tags were subcloned to AktAR from targeted A Kinase Activity Reporter (AKAR) (Allen & Zhang, Biochem Biophys Res Commun. 2006, 22; 348(2):716-21). Two plasma membrane targeted AktAR, PM(Lyn)-AktAR and AktAR-PM(CAAX), were generated by addition of the N-terminal portion of Lyn kinase gene at the 5′ end and CAAX tag at the 3′ end of AktAR, respectively. Nuclear localization was achieved by a C-terminal nuclear localization signal (NLS) tag (PKKKRKVEDA, SEQ ID NO:31). The targeting motif from DAKAP1a was used to target AktAR to the outer membrane of mitochondria.
(§2) NIH 3T3 cells were used in all experiments. The cells were plated on sterilized glass coverslips in 35-mm dishes and were grown to 40% confluency in Dulbecco's modified Eagle's medium (10% FBS) at 37° C. with 5% CO2. Cells were transfected with Lipofectamine (Invitrogen) then serum-starved for 24 h before imaging.
(§3) NIH 3T3 cells were washed once with Hanks' balanced salt solution (HBSS) buffer and imaged in the dark at room temperature. Images were acquired on a Zeiss Axiovert 200M microscope with a cooled charge-coupled device camera, as described in Ananthanarayanan, 2005. Dual emission ratio imaging used a 420DF20 excitation filter, a 450DRLP dichroic mirror, and two emission filters. For CFP and YFP, 475DF40 and 535DF25 were used respectively. Exposure time was 50-500 ms. Images were taken every 20-30 s.
(§4) Imaging data were analyzed with Metafluor 6.2 software (Universal Imaging, Downingtown, Pa.). Fluorescence images were background-corrected by deducting the background (regions with no cells) from the emission intensities of CFP or YFP. Traces before addition of drugs were normalized to 1.
It has been known that Akt has several mitochondrial substrates. […] In summary, no basal, PDGF-stimulated, or phosphatase-suppressed endogenous Akt was detected at this location. It is possible that the extremely low activity of Akt at the mitochondrial outer membrane cannot be detected by Mito-AktAR.

[2] = tested on: Akt; assay: AktAR emission ratio imaging in NIH3T3 cells
Description: as §2, §3, §4

[3] = tested on: Akt; assay: Plasma membrane targeted AktAR imaging in NIH3T3 cells; conditions: 5 mM pre-incubation for 30 min
Excerpt: as §1, §2
NIH 3T3 cells were washed once with Hanks' balanced salt solution (HBSS) buffer and imaged in the dark at room temperature. Images were acquired on a Zeiss Axiovert 200M microscope with a cooled charge-coupled device camera, as described in Ananthanarayanan, 2005. […]
Imaging data were analyzed with Metafluor 6.2 software (Universal Imaging, Downingtown, Pa.). Fluorescence images were background-corrected by deducting the background (regions with no cells) from the emission intensities of CFP or YFP. […]

[4] = tested on: p38 MAPK; assay: JNK reporter specificity: inhibition of p38 MAPK in HeLa cells; conditions: 25 μM, 45 min pre-treatment and continual presence
Description: FIG. 16A-B. Characterization of a MAPK reporter. FIG. 16A, Co-transfection of reporter with mCherry-JIPδ. To inhibit JNK activity, HeLa cells were co-transfected with the reporter and mCherry-JIPδ and imaged 24 h later in HBSS containing 10% FBS on stage warmer heated to 37° C. […] FIG. 16B, Response of reporter to inhibition of p38 MAPK.
To test the specificity of the reporter, HeLa cells were co-transfected with the reporter and a fusion construct of mCherry with the docking (δ) domain from JIP1.

[5] = tested on: calcineurin; assay: Calcineurin activity reporter emission ratio imaging in HeLa cells; conditions: 1 μM, 10 minute preincubation
Description: FIG. 22. Characterization of calcineurin activity reporter 1 (CaNAR1). Graph of representative response of CaNAR1-expressing HeLa cells following ionomycin treatment. Ionomycin (1 μM) and additional CaCl2 (5 mM) were added to the imaging solution at the indicated times (arrows). The standard deviation for each time point is shown (n=2).
(§5) FIG. 23A-B. CaNAR1 is dephosphorylated in a calcineurin-dependent manner. FIG. 23A, graph of average response of CaNAR1 in the presence (black squares) or absence (gray diamonds) of cyclosporin A (CsA, 1-μM, 10 minute preincubation). Ionomycin and CaCl2 treatments are as described for FIG. 22. The standard error at each time point is shown (n=4 and 6 in the presence or absence of CsA, respectively). FIG. 23B, the electrophoretic mobility of CaNAR1 isolated from HeLa cell lysates was determined at various times after ionomycin addition using standard western blotting techniques using a rabbit anti-GFP antibody (diluted 1:4000 in blocking buffer) was used to probe for CaNAR1.
To generate a FRET-based reporter capable of monitoring calcineurin activity in live cells, we initially chose to flank NFAT1(1-415) with ECFP and cpV(L194) at the N- and C-termini, respectively. […] The emission ratio of yellow over cyan was then measured over time in HeLa cells expressing each construct, and their signals compared. […]

[6] = tested on: calcineurin; assay: Electrophoretic mobility of CaNAR1 from HeLa cell lysates (western blot); conditions: preincubation prior to ionomycin treatment
Description: as §5
Next, to correlate the FRET change with dephosphorylation of CaNAR1, we took advantage of the fact that the electrophoretic mobility of NFAT1 is strongly influenced by its phosphorylation state. […] Though its calculated molecular weight is 85 kDa, CaNAR1 migrated almost exclusively as an approximately 125 kDa species in uninduced cell lysates, consistent with hyperphosphorylation of its substrate region. […] Thus, the observed FRET change is correlated with dephosphorylation of the reporter by calcineurin, providing a real-time readout for calcineurin activity.

## COC[C@@H]([C@H](O)[C@H](O)C(=O)NCC[C@H](C)c1nc(/C=C/C[C@@H]2O[C@]3(C[C@@H](O)[C@@H]2C)O[C@H]([C@H](C[C@H](O)[C@H](C)[C@H](O)[C@H](C)/C=C(C)/C(C)=C/C=C/C(C)=C\C#N)OC)[C@H](OP(=O)(O)O)C3(C)C)co1)N(C)C [Calyculin A]
[1]; endogenous Akt, Calyculin A 5 nM or LY294002 20 μM
  effect on Mito-AktAR response: did not recover any Akt activity
[1]; overexpressed Mito-mCherry-Akt1, Calyculin A 5 nM or LY294002
  effect on Mito-AktAR response: failed to activate mitochondrial outer membrane-bound Akt
[1]; overexpressed mCherry-Akt1, after PDGF, Calyculin A 5 nM or LY294002 20 μM
  effect on Mito-AktAR response: further increased the response
[2]; 5 nM after PDGF 50 ng/ml, serum-starved NIH3T3 cells
  effect on AktAR response: substantially increased the response of AktAR

## methylated β-cyclodextrin [MβCD]
[3]
  effect on PM(Lyn)-AktAR response to PDGF (lipid rafts): delayed response and reduced dynamic range; also recorded: diminishes Akt activity at the plasma membrane lipid rafts

## C[S+]([O-])c1ccc(-c2nc(-c3ccncc3)c(-c3ccc(F)cc3)[nH]2)cc1 (stereo not shown) [SB203580]
[4]
  effect on response of the reporter to anisomycin: does not affect the response of the reporter to anisomycin

## Cyclosporin A [CsA]
[5]
  effect on FRET change of CaNAR1 induced by ionomycin: completely abolished the FRET change
[5]; listed as cyclosporine A
  effect on FRET change of CaNAR1 induced by ionomycin: abolished
[6]
  effect on electrophoretic mobility of CaNAR1 after ionomycin: no change in the electrophoretic mobility

## CCCCCCCCCCCCCCCCCCOC[C@H](COP(=O)(O)O[C@H]1[C@H](O)[C@@H](O)[C@H](O)C[C@H]1OC)OC [SH-5]
[2]; 6 μM pre-incubation in HBSS, PDGF 50 ng/ml
  AktAR response to PDGF after pre-incubation with inhibitor: did not show substantial response
